Reference: patent publication US8309577B2, “Quinuclidine compounds as α-7 nicotinic acetylcholine receptor ligands” (Bristol-Myers Squibb Company, priority 2008, dated 2012)
Where two headings read alike, the source gives them in different places.

Molecular target: T1, α-7 nicotinic acetylcholine receptor channel expressed in HEK 293 cells (Rattus norvegicus, UniProt Q05941)
T1 construct: expressed in transfected cells
Experiment: Ca2+-sensitive fluorescence-based FLIPR assay, α7 nicotinic ACh receptor channel function (agonist)
Assay type: cell-based
Procedure: I) α7 Nicotinic Acetycholine Receptor Binding. Membranes were prepared for binding using HEK293 cells stably expressing the rat α7 nicotinic acetycholine receptor (rat α7 nAChR). Cells were homogenized at 4° C. in hypotonic lysis buffer consisting of 10 mM Tris (pH 7.4), 5 mM EDTA and protease inhibitors and centrifuged at 32000×g for 20 minutes. The pellet was washed once in membrane wash buffer consisting of 50 mM Tris (pH 7.4), 1 mM EDTA and protease inhibitors and centrifuged at 32000×g for 20 minutes. This pellet was then resuspended in assay buffer consisting 50 mM KH2PO4 (pH 7.4 at 25° C.), 1 mM EDTA, 0.005% Triton-X 100 and 0.1% (v/v) Sigma Protease Inhibitor Cocktail. Aliquots were then frozen in dry ice/ethanol and kept at −80° C. until the day of the assay. II) A Ca^2+-Sensitive, Fluorescence-Based Assay α-7 for Nicotinic Acetylcholine Receptor Channel Function In Mammalian Cells (“FLIPR”). Summary: Lead compounds are evaluated for agonist activity at […], α3β4, […], and α1β1δ1ε sub-types of nicotinic ACh receptor ion channels expressed in mammalian HEK 293 cells. Agonist potency and efficacy values are determined from kinetic fluorescence Ca^2+ influx measurements made using a 384 well FLIPR (Fluorescence Image Plate Reader). […] In this assay, channel expressing HEK cell lines seeded in 384 well assay plates are loaded with a membrane permeant fluorescent Ca^2+ indicator dye, whose 510 nm green emission signal increases in response to elevation of intracellular Ca^2+ concentration. The basal fluorescence from the cells is monitored in real time, followed by the acute addition of test compounds.
Materials and Methods: Reagents: The acetomethoxy (AM) ester of the Ca^2+ indicator dye Fluo-4 was obtained from InVitrogen, (Carlsbad, Calif.). Acetylcholine and all buffer constituents were purchased from Sigma Chemical Company, St. Louis, Mo. G418 and Minimal Essential Medium were purchased from InVitrogen Life Technologies, Carlsbad, Calif. Fetal bovine serum was purchased from (InVitrogen, Carlsbad, Calif.).
Cell Culture: HEK-293 cells were grown in Minimal Essential Medium containing 10% (v/v) fetal bovine serum at 37° C. in a 5% CO2 incubator. HEK-293 cells stably expressing the ion channels were grown in the same medium with the addition of 500 μg/ml G418.
Ca^2+ flux assays of Ca^2+ channels expressed in HEK-293 cells: HEK-293 cells expressing the ion channels of interest were plated in 384 well, black-walled, clear-bottomed, poly-D-lysine coated plates at a density of ˜20,000 cells/well in 20 μl of Minimal Essential Medium containing 10% (v/v) fetal bovine serum and incubated for 2 days at 29° C. in a 5% CO2 incubator. Prior to assay, cells were loaded with the Fluo-4 AM ester. […] Dye loading was allowed to proceed for 90 minutes at room temperature at which time the dye loading solution was removed and replaced with 40 μl/well of Hanks buffer. Cells loaded with dye were loaded onto a FLIPR384 (Molecular Devices, Sunnyvale, Calif.). Fluo-4 dye was excited using the 488 nm line of an argon laser. Emission was filtered using a 540+/−30 nm bandpass filter. For evaluation of the effects of test compounds using the Ca^2+ flux assay, compounds to be tested were provided in assay ready plates. For nicotinic receptor ion channel expressing cells, the assay was initiated by the addition of 20 μl/well of Hanks buffer containing test compounds. For all assays, data were collected at 1 Hz for 10 seconds (baseline), at which time the compound containing stimulus buffers are added, and further measurements collected at 0.33 Hz for 3 min.
Data Analysis: The statistical robustness of the nicotinic receptor Ca^2+ flux assays is determined from blanks and totals wells. […] The raw fluorescence units data files generated on the FLIPR plate reader are automatically exported and processed by in-house data analysis tools.

[1] = FLIPR α7 activity rating (EC50, nM), Table 1, HEK 293 cells, agonist Ca2+ flux
[2] = FLIPR α7 (EC50, nM), Table 1, HEK 293 cells, agonist Ca2+ flux

T1 sequence (Q05941 23-502): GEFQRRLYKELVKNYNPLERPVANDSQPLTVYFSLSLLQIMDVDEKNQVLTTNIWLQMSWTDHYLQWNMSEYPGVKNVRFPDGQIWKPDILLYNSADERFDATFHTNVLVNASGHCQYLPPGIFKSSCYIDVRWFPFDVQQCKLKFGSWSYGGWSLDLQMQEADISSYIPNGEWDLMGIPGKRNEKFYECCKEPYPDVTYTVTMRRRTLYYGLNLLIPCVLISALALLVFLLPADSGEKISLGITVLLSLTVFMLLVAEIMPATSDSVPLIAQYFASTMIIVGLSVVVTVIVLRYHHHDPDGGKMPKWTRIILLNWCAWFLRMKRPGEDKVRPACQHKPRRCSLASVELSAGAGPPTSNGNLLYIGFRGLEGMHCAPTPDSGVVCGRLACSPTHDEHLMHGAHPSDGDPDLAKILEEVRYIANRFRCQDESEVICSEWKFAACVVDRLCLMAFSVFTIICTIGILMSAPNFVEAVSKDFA

| Compound | EC50 [1] [nM] | further results |
| --- | --- | --- |
| c1ccc(-c2cnc(NC3=NCC4(CN5CCC4CC5)O3)s2)cc1 (single isomer, unassigned) [Example 4a] | 1000 to 100000 | – |
| c1ccc(-c2cnc(NC3=NCC4(CN5CCC4CC5)O3)s2)cc1 (single isomer, unassigned) [Example 4b] | 100 to 1000 | EC50 [2]: 230 nM |
| COc1ccc2nc(NC3=NCC4(CN5CCC4CC5)O3)sc2c1 (single isomer, unassigned) [Example 5a] | 1000 to 100000 | – |
| COc1ccc2nc(NC3=NCC4(CN5CCC4CC5)O3)sc2c1 (single isomer, unassigned) [Example 5b] | < 100 | – |
| Cc1cccc2sc(NC3=NCC4(CN5CCC4CC5)O3)nc12 (single isomer, unassigned) [Example 6a] | 1000 to 100000 | EC50 [2]: 4340 nM |
| Cc1cccc2sc(NC3=NCC4(CN5CCC4CC5)O3)nc12 (single isomer, unassigned) [Example 6b] | < 100 | – |
| Clc1cccc2sc(NC3=NCC4(CN5CCC4CC5)O3)nc12 (single isomer, unassigned) [Example 7a] | 1000 to 100000 | – |
| Clc1cccc2sc(NC3=NCC4(CN5CCC4CC5)O3)nc12 (single isomer, unassigned) [Example 7b] | < 100 | – |
| c1ccc2[nH]c(NC3=NCC4(CN5CCC4CC5)O3)nc2c1 (single isomer, unassigned) [Example 8a, N-(1H-benzo[d]imidazol-2-yl)-4H-1′-azaspiro[oxazole-5,3′-bicyclo[2.2.2]octan]-2-amine] | 100 to 1000 | EC50 [2]: 120 nM |
| c1ccc2[nH]c(NC3=NCC4(CN5CCC4CC5)O3)nc2c1 (single isomer, unassigned) [Example 8b, N-(1H-benzo[d]imidazol-2-yl)-4H-1′-azaspiro[oxazole-5,3′-bicyclo[2.2.2]octan]-2-amine] | 1000 to 100000 | – |
| Clc1ccc2nc(NC3=NCC4(CN5CCC4CC5)O3)sc2c1 (single isomer, unassigned) [Example 9a, N-(6-Chlorobenzo[d]thiazol-2-yl)-4H-1′-azaspiro[oxazole-5,3′-bicyclo[2.2.2]octan]-2-amine] | 1000 to 100000 | EC50 [2]: 7310 nM |
| Clc1ccc2nc(NC3=NCC4(CN5CCC4CC5)O3)sc2c1 (single isomer, unassigned) [Example 9b, N-(6-Chlorobenzo[d]thiazol-2-yl)-4H-1′-azaspiro[oxazole-5,3′-bicyclo[2.2.2]octan]-2-amine] | < 100 | – |
| Cn1c(NC2=NCC3(CN4CCC3CC4)O2)nc2ccccc21 (single isomer, unassigned) [Example 10a, N-(1-methyl-1H-benzo[d]imidazol-2-yl)-4H-1′-azaspiro[oxazole-5,3′-bicyclo[2.2.2]octan]-2-amine] | 100 to 1000 | – |
| CCOc1ccc2nc(NC3=NCC4(CN5CCC4CC5)O3)sc2c1 (single isomer, unassigned) [Example 11b, N-(6-Ethoxybenzo[d]thiazol-2-yl)-4H-1′-azaspiro[oxazole-5,3′-bicyclo[2.2.2]octan]-2-amine] | 100 to 1000 | EC50 [2]: 213 nM |
| Cc1ccc2nc(NC3=NCC4(CN5CCC4CC5)O3)sc2c1 (single isomer, unassigned) [Example 12a, N-(6-Methylbenzo[d]thiazol-2-yl)-4H-1′-azaspiro[oxazole-5,3′-bicyclo[2.2.2]octan]-2-amine] | 100 to 1000 | – |
| Cc1ccc2nc(NC3=NCC4(CN5CCC4CC5)O3)sc2c1 (single isomer, unassigned) [Example 12b, N-(6-Methylbenzo[d]thiazol-2-yl)-4H-1′-azaspiro[oxazole-5,3′-bicyclo[2.2.2]octan]-2-amine] | 1000 to 100000 | – |
| Oc1ccc2nc(NC3=NCC4(CN5CCC4CC5)O3)sc2c1 (single isomer, unassigned) [Example 13a] | 100 to 1000 | – |
| Oc1ccc2nc(NC3=NCC4(CN5CCC4CC5)O3)sc2c1 (single isomer, unassigned) [Example 13b] | < 100 | – |

| Compound | EC50 [1] [nM] | further results |
| --- | --- | --- |
| C1CCc2sc(NC3=NCC4(CN5CCC4CC5)O3)nc2C1 (single isomer, unassigned) [Example 14b] | 100 to 1000 | – |
| CC(C)c1csc(NC2=NCC3(CN4CCC3CC4)O2)n1 (single isomer, unassigned) [Example 15a] | 1000 to 100000 | EC50 [2]: 6350 nM |
| CC(C)c1csc(NC2=NCC3(CN4CCC3CC4)O2)n1 (single isomer, unassigned) [Example 15b] | 100 to 1000 | – |
| c1csc(NC2=NCC3(CN4CCC3CC4)O2)n1 (single isomer, unassigned) [Example 16a] | 1000 to 100000 | EC50 [2]: 3170 nM |
| c1csc(NC2=NCC3(CN4CCC3CC4)O2)n1 (single isomer, unassigned) [Example 16b] | 100 to 1000 | – |
| COc1ccc(-c2csc(NC3=NCC4(CN5CCC4CC5)O3)n2)cc1 (single isomer, unassigned) [Example 20a] | 100 to 1000 | – |
| COc1ccc(-c2csc(NC3=NCC4(CN5CCC4CC5)O3)n2)cc1 (single isomer, unassigned) [Example 20b] | – | EC50 [2]: 318 nM; EC50 (read-out: FLIPR α7 activity rating (EC50), Table 1, HEK 293 cells, agonist Ca2+ flux): 100 to 1000 nM |
| O=C(c1ccc2nc(NC3=NCC4(CN5CCC4CC5)O3)sc2c1)N1CCCC1 (stereo not drawn) [Example 3] | 1000 to 100000 | EC50: 3840 nM |
| COc1ccc2nc(NC3=NCC4(CN5CCC4CC5)O3)sc2c1 (stereo not drawn) [Example 5, N-(6-Methoxybenzo[d]thiazol-2-yl)-4H-1′-azaspiro[oxazole-5,3′-bicyclo[2.2.2]octan]-2-amine] | 100 to 1000 | – |
| Cc1cccc2sc(NC3=NCC4(CN5CCC4CC5)O3)nc12 (stereo not drawn) [Example 6, N-(4-Methylbenzo[d]thiazol-2-yl)-4H-1′-azaspiro[oxazole-5,3′-bicyclo[2.2.2]octan]-2-amine] | 100 to 1000 | – |
| Clc1ccc2nc(NC3=NCC4(CN5CCC4CC5)O3)sc2c1 (stereo not drawn) [Example 9, N-(6-Chlorobenzo[d]thiazol-2-yl)-4H-1′-azaspiro[oxazole-5,3′-bicyclo[2.2.2]octan]-2-amine] | 100 to 1000 | – |
| Cn1c(NC2=NCC3(CN4CCC3CC4)O2)nc2ccccc21 (stereo not drawn) [Example 10, N-(1-methyl-1H-benzo[d]imidazol-2-yl)-4H-1′-azaspiro[oxazole-5,3′-bicyclo[2.2.2]octan]-2-amine] | 100 to 1000 | – |
| CCOc1ccc2nc(NC3=NCC4(CN5CCC4CC5)O3)sc2c1 (stereo not drawn) [Example 11, N-(6-Ethoxybenzo[d]thiazol-2-yl)-4H-1′-azaspiro[oxazole-5,3′-bicyclo[2.2.2]octan]-2-amine] | 100 to 1000 | – |
| Cc1ccc2nc(NC3=NCC4(CN5CCC4CC5)O3)sc2c1 (stereo not drawn) [Example 12, N-(6-Methylbenzo[d]thiazol-2-yl)-4H-1′-azaspiro[oxazole-5,3′-bicyclo[2.2.2]octan]-2-amine] | 100 to 1000 | – |
| CC(=O)Nc1ccc2nc(NC3=NC[C@@]4(CN5CCC4CC5)O3)sc2c1 [Example 21, (R)—N-(2-(4H-1′-Azaspiro[oxazole-5,3′-bicyclo[2.2.2]octane]-2-ylamino)benzo[d]thiazol-6-yl)acetamide] | < 100 | – |
| COc1ccc2nc(NC3=NC[C@@]4(CN5CCC4CC5)O3)nn2c1 [Example 24, (R)—N-(6-Methoxy-[1,2,4]-triazolo[1,5-a]pyridin-2-yl)-4H-1′-azaspiro[oxazole-5,3′-bicyclo[2.2.2]octan]-2-amine] | < 100 | – |
| FC(F)(F)c1cnc(NC2=NC[C@@]3(CN4CCC3CC4)O2)cn1 [Example 25, (R)—N-(5-(Trifluoromethyl)pyrazin-2-yl)-4H-1′-azaspiro[oxazole-5,3′-bicyclo[2.2.2]octan]-2-amine] | 100 to 1000 | EC50 [2]: 510 nM |
